Patent US8524713B2, “Substituted spirocyclic piperidine derivatives as histamine-3 (H3) receptor ligands” (Cephalon, Inc, priority 2008, dated 2013)
pKi: −log10 of the molar value. Structures can show the parent of a compound that is named as a salt.

What was measured:
[1] = molecular target: T1, human H3 receptor (Homo sapiens, UniProt Q9Y5N1); assay: Human H3 radioligand binding ([3H]-N-alpha-methylhistamine, SPA); conditions: membranes of CHO cells expressing human H3 receptor; [3H]-N-alpha-methylhistamine about 1 nM
T1 construct: expressed in transfected cells; membrane preparation
T1 sequence (Q9Y5N1 whole entry): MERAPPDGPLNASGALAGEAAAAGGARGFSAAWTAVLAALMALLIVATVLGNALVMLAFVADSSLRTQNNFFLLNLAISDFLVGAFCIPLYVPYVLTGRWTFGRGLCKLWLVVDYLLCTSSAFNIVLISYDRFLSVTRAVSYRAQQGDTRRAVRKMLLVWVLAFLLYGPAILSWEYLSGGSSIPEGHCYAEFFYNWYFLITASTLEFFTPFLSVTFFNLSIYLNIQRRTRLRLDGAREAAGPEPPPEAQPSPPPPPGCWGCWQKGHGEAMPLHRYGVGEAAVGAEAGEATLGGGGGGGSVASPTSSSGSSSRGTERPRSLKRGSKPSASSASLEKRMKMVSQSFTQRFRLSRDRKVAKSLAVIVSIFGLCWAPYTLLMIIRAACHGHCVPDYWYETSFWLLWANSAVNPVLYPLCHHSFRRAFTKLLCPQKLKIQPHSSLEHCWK
Procedure: (§1) Methods: CHO cells stably expressing the human H3 receptor (GenBank: NM_007232) were harvested and cell pellets were frozen (−80° C.). Cell pellets were resuspended in 5 mM Tris-HCl, pH 7.5 with […] and a cocktail of protease inhibitors (Complete Protease Inhibitior Tablets, Roche Diagnostics). Cells were disrupted using a polytron cell homogenizer and the suspension was centrifuged at 1000×g for 10 minutes at 4° C. The pellet was discarded and the supernatant centrifuged at 40,000×g for 30 min at 4° C. This membrane pellet was washed in membrane buffer containing 50 mM Tris-HCl, pH 7.5 with 0.6 mM EDTA, 5 mM MgCl2 and protease inhibitors, recentrifuged as above and the final pellet resuspended in membrane buffer plus 250 mM sucrose and frozen at −80° C.
(§2) Radioligand Binding. Membranes were resuspended in 50 mM Tris HCl (pH 7.4), 5 mM MgCl2, 0.1% BSA. The membrane suspensions (10 μg protein per well) were incubated in a 96 well microtiter plate with [^3H]-N-alpha-methylhistamine (approximately 1 nM final concentration), test compounds at various concentrations (0.01 nM-30 μM) and scintillation proximity beads (Perkin Elmer, FlashBlueGPCR Scintillating Beads) in a final volume of 80 μl for 4 hours at room temperature, protected from light. Non-specific binding was determined in the presence of 10 μM clobenpropit. Radioligand bound to receptor, and therefore in proximity to the scintillation beads, was measured using a MicroBeta scintillation counter.

[2] = molecular target: T2, rat histamine H3 receptor (Rattus norvegicus, UniProt Q9QYN8); assay: Rat H3 radioligand binding ([3H]-N-alpha-methylhistamine, SPA); conditions: membranes of CHO-A3 cells expressing rat H3 receptor; [3H]-N-alpha-methylhistamine about 1 nM
T2 construct: encoding the entire 445-amino-acid rat histamine H3 receptor; expressed in transfected cells; membrane preparation
T2 sequence (Q9QYN8 whole entry): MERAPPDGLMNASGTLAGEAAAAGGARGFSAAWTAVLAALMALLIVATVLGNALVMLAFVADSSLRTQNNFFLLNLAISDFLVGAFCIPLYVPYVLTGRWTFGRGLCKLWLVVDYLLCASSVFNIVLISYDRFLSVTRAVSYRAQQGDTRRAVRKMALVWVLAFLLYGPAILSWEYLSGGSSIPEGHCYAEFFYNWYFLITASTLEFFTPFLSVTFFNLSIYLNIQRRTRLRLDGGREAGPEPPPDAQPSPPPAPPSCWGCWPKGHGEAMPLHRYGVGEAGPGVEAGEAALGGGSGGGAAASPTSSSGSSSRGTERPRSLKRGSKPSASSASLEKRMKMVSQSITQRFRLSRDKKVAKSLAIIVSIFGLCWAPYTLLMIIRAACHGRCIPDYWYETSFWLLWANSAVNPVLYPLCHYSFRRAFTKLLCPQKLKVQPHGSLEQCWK
Description: as §1, with “Cell line development and membrane preparation. The rat” for “Methods: CHO cells stably expressing the human”, “cDNA was PCR amplified from reverse-transcribed RNA pooled from rat thalamus, hypothalamus, striatum and prefrontal cortex with a sequence corresponding to by #338-1672 of Genbank file #NM_053506, encoding the entire 445-amino-acid rat histamine H3 receptor. This was engineered into the pIRES-neo3 mammalian expression vector, which was stably transfected into the CHO-A3 cell line (Euroscreen, Belgium), followed by clonal selection by limiting dilution. Cells” for “(GenBank: NM_007232)”
as §2

| melting point [°C] | pKi [1] | pKi [2] | Compound |
| --- | --- | --- | --- |
| 207 to 209 | – | – | O=c1cccnn1CCCOc1ccc2c(c1)CCC1(CCN(C3CCC3)CC1)O2 (as salt: HCl) [Example 24, 1′-Cyclobutyl-6-(3-(2-pyridazin-3-one)propyloxy]-spiro[3,4-dihydrobenzopyran-2,4′-piperidine]] |
| 201 to 203 | – | – | O=c1cccnn1CC(O)COc1ccc2c(c1)CCC1(CCN(C3CCC3)CC1)O2 (stereo not drawn) (as salt: HCl) [Example 25, 1′-Cyclobutyl-6-(3-(2-pyridazin-3-one)-2-hydroxypropyloxy]-spiro[3,4-dihydrobenzopyran-2,4′-piperidine]] |
| 258 to 262 | – | – | O=c1cc(-c2ccc3c(c2)COC2(CCN(C4CCC4)CC2)O3)cn[nH]1 (as salt: HCl) [Example 26] |
| 269 to 270 | – | – | Cc1cc2c(cc1-c1ccc(=O)n(C)n1)COC1(CCN(C3CCC3)CC1)O2 (as salt: HCl) [Example 30] |
| 255 to 257 | – | – | Cc1c(-c2ccc(=O)[nH]n2)ccc2c1COC1(CCN(C3CCC3)CC1)O2 (as salt: HCl) [Example 31] |
| > 300 | – | – | O=C1NN=C(c2ccc3c(c2)COC2(CCN(C4CCC4)CC2)O3)C2CC12 (stereo not drawn) (as salt: HCl) [Example 37] |
| 271 to 274 | – | – | O=C1NN=C(c2ccc3c(c2)COC2(CCN(C4CCC4)CC2)O3)C2CCC12 (stereo not drawn) (as salt: HCl) [Example 38] |
| 209 to 214 | – | – | CC1CC(=O)NN=C1c1ccc2c(c1)COC1(CCN(C3CCC3)CC1)O2 (stereo not drawn) (as salt: HCl) [Example 39] |
| 265 to 267 | – | – | Cc1cc(=O)[nH]nc1-c1ccc2c(c1)COC1(CCN(C3CCC3)CC1)O2 (as salt: HCl) [Example 40] |
| > 300 | – | – | Cc1c(-c2ccc3c(c2)COC2(CCN(C4CCC4)CC2)O3)n[nH]c(=O)c1C (as salt: HCl) [Example 41] |
| – | > 6.70 | > 6.70 | O=C1NN=C(c2ccc3c(c2)CCC2(CCN(C4CCC4)CC2)O3)C2CCC12 (racemic) [Example 10, 1′-Cyclobutyl-6-(3,4-diaza-bicyclo[4.2.0]oct-4-en-2-one-5-yl)-spiro[3,4-dihydrobenzopyran-2,4′-piperidine]] |
| – | > 6.70 | > 6.70 | O=C1NN=C(c2ccc3c(c2)CCC2(CCN(C4CCC4)CC2)O3)C2CCC12 (single isomer, unassigned) [Example 22] |
| – | > 6.70 | > 6.70 | O=C1NN=C(c2ccc3c(c2)CCC2(CCN(C4CCC4)CC2)O3)C2CCC12 (single isomer, unassigned) [Example 23] |
| 207 to 209 | > 6.70 | > 6.70 | O=C1CCC(c2ccc3c(c2)CC2(CCN(C4CCC4)CC2)O3)=NN1 [Example 1, 6-(1-Cyclobutyl-spiro[benzofuran-2(3H),4′-piperidine]-5-yl)-4,5-dihydro-2H-pyridazin-3-one] |
| 189 to 191 | > 6.70 | > 6.70 | O=C1NN=C(c2ccc3c(c2)CC2(CCN(C4CCC4)CC2)O3)C2CC12 (stereo not drawn) [Example 2, l′-cyclobutyl-5-(3,4-diaza-bicyclo[4.1.0]hepten-2-one-5-yl)-spiro[benzofuran-2(3H),4′-piperidine]] |
| 213 to 215 | > 6.70 | 6.00 to 6.70 | CC1CC(=O)NN=C1c1ccc2c(c1)CC1(CCN(C3CCC3)CC1)O2 (stereo not drawn) [Example 3, 6-(1-Cyclobutyl-spiro[benzofuran-2(3H),4′-piperidine]-5-yl)-5-methyl-4,5-dihydro-2H-pyridazin-3-one] |
| 243 to 245 | > 6.70 | > 6.70 | Cc1cc(=O)[nH]nc1-c1ccc2c(c1)CC1(CCN(C3CCC3)CC1)O2 [Example 4, 6-(Cyclobutyl-spiro[benzofuran-2(3H),4′-piperidine]-5-yl)-5-methyl-2H-pyridazin-3-one] |
| 242 to 243.5 | > 6.70 | > 6.70 | O=C1CCC(c2ccc3c(c2)CCC2(CCN(C4CCC4)CC2)O3)=NN1 [Example 5] |
| – | < 6.00 | < 6.00 | O=C1NN=C(c2ccc3c(c2)CCC2(CCNCC2)O3)C2CC12 (stereo not drawn) [Example 6, 6-(3,4-diaza-bicyclo[4.1.0]hept-4-en-2-one-5-yl)-spiro[3,4-dihydrobenzopyran-2,4′-piperidine]] |

| melting point [°C] | pKi [1] | pKi [2] | Compound |
| --- | --- | --- | --- |
| – | > 6.70 | > 6.70 | O=C1NN=C(c2ccc3c(c2)CCC2(CCN(C4CCC4)CC2)O3)C2CC12 (stereo not drawn) [Example 7, 1′-Cyclobutyl-6-(3,4-diaza-bicyclo[4.1.0]hept-4-en-2-one-5-yl)-spiro[3,4-dihydrobenzopyran-2,4′-piperidine]] |
| – | > 6.70 | > 6.70 | O=C1NN=C(c2ccc3c(c2)CCC2(CCN(C4CCCC4)CC2)O3)C2CC12 (stereo not drawn) [Example 8, 1′-Cyclopentyl-6-(3,4-diaza-bicyclo[4.1.0]hept-4-en-2-one-5-yl)-spiro[3,4-dihydrobenzopyran-2,4′-piperidine]] |
| – | > 6.70 | > 6.70 | CC(C)N1CCC2(CCc3cc(C4=NNC(=O)C5CC45)ccc3O2)CC1 (stereo not drawn) [Example 9] |
| – | > 6.70 | > 6.70 | CC1(C)CC(c2ccc3c(c2)CCC2(CCN(C4CCC4)CC2)O3)=NNC1=O [Example 11, 1′-Cyclobutyl-6-(4,4-dimethyl-4,5-dihydro-2H-pyridazin-3-one-6-yl)-spiro[3,4-dihydrobenzopyran-2,4′-piperidine]] |
| 207 to 209 | > 6.70 | > 6.70 | CC1CC(=O)NN=C1c1ccc2c(c1)CCC1(CCN(C3CCC3)CC1)O2 (stereo not drawn) [Example 12, 1′-Cyclobutyl-6-(5-methyl-4,5-dihydro-2H-pyridazin-3-one-6-yl)-spiro[3,4-dihydrobenzopyran-2,4′-piperidine]] |
| 270 to 272 | > 6.70 | > 6.70 | Cc1cc(=O)[nH]nc1-c1ccc2c(c1)CCC1(CCN(C3CCC3)CC1)O2 [Example 13, 1′-Cyclobutyl-6-(5-methyl-2H-pyridazin-3-one-6-yl)-spiro[3,4-dihydrobenzopyran-2,4′-piperidine]] |
| 210 to 213 | > 6.70 | > 6.70 | CC(C)N1CCC2(CCc3cc(C4=NNC(=O)C(C)(C)C4)ccc3O2)CC1 [Example 14] |
| – | > 6.70 | > 6.70 | O=c1cccnn1CCCOc1ccc2c(c1)CCC1(CCN(C3CCC3)CC1)O2 [Example 24, 1′-Cyclobutyl-6-(3-(2-pyridazin-3-one)propyloxy]-spiro[3,4-dihydrobenzopyran-2,4′-piperidine]] |
| – | > 6.70 | > 6.70 | O=c1cccnn1CC(O)COc1ccc2c(c1)CCC1(CCN(C3CCC3)CC1)O2 (stereo not drawn) [Example 25, 1′-Cyclobutyl-6-(3-(2-pyridazin-3-one)-2-hydroxypropyloxy]-spiro[3,4-dihydrobenzopyran-2,4′-piperidine]] |
| – | > 6.70 | > 6.70 | O=c1cc(-c2ccc3c(c2)COC2(CCN(C4CCC4)CC2)O3)cn[nH]1 [Example 26] |
| – | > 6.70 | > 6.70 | Cc1cc2c(cc1-c1ccc(=O)n(C)n1)COC1(CCN(C3CCC3)CC1)O2 [Example 30] |
| – | > 6.70 | > 6.70 | Cc1c(-c2ccc(=O)[nH]n2)ccc2c1COC1(CCN(C3CCC3)CC1)O2 [Example 31] |
| – | > 6.70 | > 6.70 | CC1(C)CC(c2ccc3c(c2)COC2(CCN(C4CCC4)CC2)O3)=NNC1=O [Example 34, 1′-Cyclobutyl-6-[5H-4,4-dimethylpyridazin-3-one)-spiro[1,3-benzodioxine-2,4′-piperidine]] |
| – | > 6.70 | > 6.70 | O=C1NN=C(c2ccc3c(c2)COC2(CCN(C4CCC4)CC2)O3)C2CC12 (stereo not drawn) [Example 37] |
| – | > 6.70 | > 6.70 | O=C1NN=C(c2ccc3c(c2)COC2(CCN(C4CCC4)CC2)O3)C2CCC12 (stereo not drawn) [Example 38] |
| – | > 6.70 | > 6.70 | CC1CC(=O)NN=C1c1ccc2c(c1)COC1(CCN(C3CCC3)CC1)O2 (stereo not drawn) [Example 39] |
| – | > 6.70 | > 6.70 | Cc1cc(=O)[nH]nc1-c1ccc2c(c1)COC1(CCN(C3CCC3)CC1)O2 [Example 40] |
| – | > 6.70 | > 6.70 | Cc1c(-c2ccc3c(c2)COC2(CCN(C4CCC4)CC2)O3)n[nH]c(=O)c1C [Example 41] |
